From publication doi:10.1101/2023.11.24.568596v1 (biorxiv, 2023)

Experiments:
Conditions in all cases: binder
MARK4 = biological target: T1, MARK4 (Homo sapiens, UniProt Q96L34)
T1 sequence (Q96L34 1-752): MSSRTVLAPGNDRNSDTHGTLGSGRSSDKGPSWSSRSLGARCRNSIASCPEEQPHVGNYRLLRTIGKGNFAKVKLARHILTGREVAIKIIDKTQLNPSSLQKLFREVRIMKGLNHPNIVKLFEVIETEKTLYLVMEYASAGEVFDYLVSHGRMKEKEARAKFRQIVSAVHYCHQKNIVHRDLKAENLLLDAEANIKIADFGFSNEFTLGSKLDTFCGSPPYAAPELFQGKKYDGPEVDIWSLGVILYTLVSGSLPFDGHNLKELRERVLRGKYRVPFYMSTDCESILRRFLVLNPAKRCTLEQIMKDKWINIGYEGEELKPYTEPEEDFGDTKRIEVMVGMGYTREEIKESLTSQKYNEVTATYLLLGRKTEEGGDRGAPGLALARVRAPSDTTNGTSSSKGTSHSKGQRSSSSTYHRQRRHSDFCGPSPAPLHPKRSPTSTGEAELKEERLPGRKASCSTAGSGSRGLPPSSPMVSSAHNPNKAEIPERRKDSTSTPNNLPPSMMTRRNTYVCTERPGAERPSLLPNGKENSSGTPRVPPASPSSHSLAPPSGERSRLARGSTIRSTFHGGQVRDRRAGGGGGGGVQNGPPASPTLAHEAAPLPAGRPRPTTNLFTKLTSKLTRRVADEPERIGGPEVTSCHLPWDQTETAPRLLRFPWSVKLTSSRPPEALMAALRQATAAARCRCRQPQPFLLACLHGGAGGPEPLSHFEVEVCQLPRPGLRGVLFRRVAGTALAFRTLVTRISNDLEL

JNK2 = JNK2 (Homo sapiens, UniProt P45984)
Sequence of JNK2 (P45984 whole entry): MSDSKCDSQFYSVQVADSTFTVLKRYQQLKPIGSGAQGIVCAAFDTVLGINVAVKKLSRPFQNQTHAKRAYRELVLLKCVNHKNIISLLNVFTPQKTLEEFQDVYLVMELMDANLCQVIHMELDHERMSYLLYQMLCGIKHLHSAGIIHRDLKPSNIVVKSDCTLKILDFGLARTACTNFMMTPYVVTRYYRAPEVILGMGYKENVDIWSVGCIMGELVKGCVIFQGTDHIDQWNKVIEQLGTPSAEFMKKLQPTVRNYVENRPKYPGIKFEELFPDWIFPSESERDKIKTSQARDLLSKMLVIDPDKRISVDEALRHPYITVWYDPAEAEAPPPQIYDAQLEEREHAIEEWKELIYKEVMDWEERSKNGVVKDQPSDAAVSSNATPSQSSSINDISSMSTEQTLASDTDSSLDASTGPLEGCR

p38a = p38a (Homo sapiens, UniProt Q16539)
Sequence of p38a (Q16539 whole entry): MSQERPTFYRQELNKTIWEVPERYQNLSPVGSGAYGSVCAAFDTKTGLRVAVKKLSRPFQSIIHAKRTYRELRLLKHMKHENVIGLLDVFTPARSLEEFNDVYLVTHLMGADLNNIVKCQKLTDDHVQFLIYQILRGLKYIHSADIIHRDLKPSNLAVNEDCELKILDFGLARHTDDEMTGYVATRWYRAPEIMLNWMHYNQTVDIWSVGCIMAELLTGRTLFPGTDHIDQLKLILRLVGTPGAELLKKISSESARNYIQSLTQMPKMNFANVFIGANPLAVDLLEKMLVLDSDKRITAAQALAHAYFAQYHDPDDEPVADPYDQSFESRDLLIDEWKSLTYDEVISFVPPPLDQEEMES

CDK2 = CDK2 (Homo sapiens, UniProt P24941)
MARK3 = MARK3 (Homo sapiens, UniProt P27448)
Sequence of MARK3 (P27448 whole entry): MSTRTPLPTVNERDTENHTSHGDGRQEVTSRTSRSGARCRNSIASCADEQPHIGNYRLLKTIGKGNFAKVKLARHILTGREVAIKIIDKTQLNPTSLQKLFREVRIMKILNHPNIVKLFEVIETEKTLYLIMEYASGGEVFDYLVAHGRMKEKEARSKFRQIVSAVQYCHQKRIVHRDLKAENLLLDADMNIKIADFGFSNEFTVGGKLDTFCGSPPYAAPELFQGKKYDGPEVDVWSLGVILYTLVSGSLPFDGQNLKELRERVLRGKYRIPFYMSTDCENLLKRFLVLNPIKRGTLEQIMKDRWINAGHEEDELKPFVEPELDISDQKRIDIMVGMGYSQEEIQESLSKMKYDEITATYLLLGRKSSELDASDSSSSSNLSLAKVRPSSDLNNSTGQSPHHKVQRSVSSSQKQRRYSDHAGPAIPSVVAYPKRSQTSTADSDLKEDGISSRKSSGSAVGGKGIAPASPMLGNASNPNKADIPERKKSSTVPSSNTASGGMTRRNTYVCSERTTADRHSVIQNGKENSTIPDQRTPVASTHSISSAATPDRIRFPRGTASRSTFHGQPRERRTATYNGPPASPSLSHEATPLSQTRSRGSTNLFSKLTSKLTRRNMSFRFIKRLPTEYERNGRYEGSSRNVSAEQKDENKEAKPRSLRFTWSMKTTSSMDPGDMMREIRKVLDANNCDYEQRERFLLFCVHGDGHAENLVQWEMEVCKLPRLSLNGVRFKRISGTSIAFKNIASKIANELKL

MSK1b = MSK1b (Homo sapiens, UniProt O75582)
Sequence of MSK1b (O75582 whole entry): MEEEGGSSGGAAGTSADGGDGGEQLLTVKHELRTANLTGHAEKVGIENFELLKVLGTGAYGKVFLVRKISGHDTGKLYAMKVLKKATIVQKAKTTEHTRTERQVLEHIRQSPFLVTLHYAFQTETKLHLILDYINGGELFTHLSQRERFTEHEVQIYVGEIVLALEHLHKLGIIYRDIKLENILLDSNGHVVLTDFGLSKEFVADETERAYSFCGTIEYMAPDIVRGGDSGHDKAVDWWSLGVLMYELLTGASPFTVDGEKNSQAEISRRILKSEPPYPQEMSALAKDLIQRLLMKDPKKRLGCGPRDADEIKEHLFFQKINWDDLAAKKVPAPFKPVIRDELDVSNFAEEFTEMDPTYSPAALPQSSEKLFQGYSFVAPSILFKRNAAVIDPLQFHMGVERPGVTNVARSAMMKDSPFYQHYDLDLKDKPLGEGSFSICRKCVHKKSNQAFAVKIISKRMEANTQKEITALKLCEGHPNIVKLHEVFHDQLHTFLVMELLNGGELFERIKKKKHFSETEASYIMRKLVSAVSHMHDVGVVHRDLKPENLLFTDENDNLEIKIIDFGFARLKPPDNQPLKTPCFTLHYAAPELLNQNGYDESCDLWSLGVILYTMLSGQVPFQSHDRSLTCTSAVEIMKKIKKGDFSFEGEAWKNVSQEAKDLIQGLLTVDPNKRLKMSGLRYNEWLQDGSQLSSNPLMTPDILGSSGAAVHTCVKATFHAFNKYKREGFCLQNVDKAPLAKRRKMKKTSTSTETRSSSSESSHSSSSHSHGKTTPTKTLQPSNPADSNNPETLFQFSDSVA

GAK = biological target: T2, GAK (Homo sapiens, UniProt O14976)
T2 sequence (O14976 1-1311): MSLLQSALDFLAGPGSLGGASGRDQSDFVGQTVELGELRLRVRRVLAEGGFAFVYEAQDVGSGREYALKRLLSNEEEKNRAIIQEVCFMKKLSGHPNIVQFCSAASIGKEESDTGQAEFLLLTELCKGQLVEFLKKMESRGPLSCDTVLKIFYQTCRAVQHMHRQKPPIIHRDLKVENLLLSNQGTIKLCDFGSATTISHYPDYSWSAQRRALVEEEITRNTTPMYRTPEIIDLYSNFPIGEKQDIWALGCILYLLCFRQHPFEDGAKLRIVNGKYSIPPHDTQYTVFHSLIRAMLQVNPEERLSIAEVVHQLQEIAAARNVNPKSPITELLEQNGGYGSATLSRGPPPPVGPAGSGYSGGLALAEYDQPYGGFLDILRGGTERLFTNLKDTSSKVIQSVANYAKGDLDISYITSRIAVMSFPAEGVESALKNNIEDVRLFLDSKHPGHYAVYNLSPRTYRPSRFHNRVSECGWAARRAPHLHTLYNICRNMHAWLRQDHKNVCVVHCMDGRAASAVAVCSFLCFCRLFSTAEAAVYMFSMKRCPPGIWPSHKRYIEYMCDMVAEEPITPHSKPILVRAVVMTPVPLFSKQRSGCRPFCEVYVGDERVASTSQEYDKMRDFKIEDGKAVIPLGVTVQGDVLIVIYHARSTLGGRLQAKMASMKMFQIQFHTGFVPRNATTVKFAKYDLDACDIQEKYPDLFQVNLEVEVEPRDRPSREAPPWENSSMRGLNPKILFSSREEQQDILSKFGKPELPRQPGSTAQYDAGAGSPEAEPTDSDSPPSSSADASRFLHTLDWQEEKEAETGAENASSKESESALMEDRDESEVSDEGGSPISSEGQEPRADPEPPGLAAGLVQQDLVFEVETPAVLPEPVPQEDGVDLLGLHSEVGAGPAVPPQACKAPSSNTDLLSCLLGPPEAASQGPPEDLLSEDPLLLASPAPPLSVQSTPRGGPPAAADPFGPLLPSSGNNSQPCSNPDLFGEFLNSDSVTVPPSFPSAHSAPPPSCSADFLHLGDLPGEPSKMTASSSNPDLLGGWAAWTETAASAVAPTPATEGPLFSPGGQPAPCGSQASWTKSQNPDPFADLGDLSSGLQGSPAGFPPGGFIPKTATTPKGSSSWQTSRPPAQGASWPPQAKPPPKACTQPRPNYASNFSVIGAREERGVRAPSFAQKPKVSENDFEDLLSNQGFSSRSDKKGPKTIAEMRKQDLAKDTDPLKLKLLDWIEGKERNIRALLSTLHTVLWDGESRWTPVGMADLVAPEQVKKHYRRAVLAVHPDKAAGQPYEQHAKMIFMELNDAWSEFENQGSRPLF

DAPK3 = DAPK3 (Homo sapiens, UniProt O43293)
Sequence of DAPK3 (O43293 whole entry): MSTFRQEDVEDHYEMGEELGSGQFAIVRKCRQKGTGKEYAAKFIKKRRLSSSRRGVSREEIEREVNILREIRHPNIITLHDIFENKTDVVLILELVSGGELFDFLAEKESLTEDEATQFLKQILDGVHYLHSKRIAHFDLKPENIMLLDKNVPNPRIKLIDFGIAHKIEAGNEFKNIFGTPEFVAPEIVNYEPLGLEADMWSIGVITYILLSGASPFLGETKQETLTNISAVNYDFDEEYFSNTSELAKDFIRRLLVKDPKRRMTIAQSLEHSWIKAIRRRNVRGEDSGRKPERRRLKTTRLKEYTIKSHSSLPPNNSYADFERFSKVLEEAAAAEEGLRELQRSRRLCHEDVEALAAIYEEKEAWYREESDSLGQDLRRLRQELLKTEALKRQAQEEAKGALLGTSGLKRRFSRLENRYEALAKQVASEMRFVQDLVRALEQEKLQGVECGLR

NEK7 = NEK7 (Homo sapiens, UniProt Q8TDX7)
Sequence of NEK7 (Q8TDX7 whole entry): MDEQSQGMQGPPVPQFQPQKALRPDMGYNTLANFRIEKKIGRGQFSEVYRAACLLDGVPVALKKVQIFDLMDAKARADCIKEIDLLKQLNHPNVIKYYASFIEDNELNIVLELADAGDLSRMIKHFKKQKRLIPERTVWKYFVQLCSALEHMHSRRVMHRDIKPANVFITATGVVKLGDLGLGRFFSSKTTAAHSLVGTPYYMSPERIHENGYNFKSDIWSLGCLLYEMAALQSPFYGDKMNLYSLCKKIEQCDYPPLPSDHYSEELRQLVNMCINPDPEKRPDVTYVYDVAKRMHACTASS

HIPK2 = HIPK2 (Homo sapiens, UniProt Q9H2X6)
Sequence of HIPK2 (Q9H2X6 whole entry): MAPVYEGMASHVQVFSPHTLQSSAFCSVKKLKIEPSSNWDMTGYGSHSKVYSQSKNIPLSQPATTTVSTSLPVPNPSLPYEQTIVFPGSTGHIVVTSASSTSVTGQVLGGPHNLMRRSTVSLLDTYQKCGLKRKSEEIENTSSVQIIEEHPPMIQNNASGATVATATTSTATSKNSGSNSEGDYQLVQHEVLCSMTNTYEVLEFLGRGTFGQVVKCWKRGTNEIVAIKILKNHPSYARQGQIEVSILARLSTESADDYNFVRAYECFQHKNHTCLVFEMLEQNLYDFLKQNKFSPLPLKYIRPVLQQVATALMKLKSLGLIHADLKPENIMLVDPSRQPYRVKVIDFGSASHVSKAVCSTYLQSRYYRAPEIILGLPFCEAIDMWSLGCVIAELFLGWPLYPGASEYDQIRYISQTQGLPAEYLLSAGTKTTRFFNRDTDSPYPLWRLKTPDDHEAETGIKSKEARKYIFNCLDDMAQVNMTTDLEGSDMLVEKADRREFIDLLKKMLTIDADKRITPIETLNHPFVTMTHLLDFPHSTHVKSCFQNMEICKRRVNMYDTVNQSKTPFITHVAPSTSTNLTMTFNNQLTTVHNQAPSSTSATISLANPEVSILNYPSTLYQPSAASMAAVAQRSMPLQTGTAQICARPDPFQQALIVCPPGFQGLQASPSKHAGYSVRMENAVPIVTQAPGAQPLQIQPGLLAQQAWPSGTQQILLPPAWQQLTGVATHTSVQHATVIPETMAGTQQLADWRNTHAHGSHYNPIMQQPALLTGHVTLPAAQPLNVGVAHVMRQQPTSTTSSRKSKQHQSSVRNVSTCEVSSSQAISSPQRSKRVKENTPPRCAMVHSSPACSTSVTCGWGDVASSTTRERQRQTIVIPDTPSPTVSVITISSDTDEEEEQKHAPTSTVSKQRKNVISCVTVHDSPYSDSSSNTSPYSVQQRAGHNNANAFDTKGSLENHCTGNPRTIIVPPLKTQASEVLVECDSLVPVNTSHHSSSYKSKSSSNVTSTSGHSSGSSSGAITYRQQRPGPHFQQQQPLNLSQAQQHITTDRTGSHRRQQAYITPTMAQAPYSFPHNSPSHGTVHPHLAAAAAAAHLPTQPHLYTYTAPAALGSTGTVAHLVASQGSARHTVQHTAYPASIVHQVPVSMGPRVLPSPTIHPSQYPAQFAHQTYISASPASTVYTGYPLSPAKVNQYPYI

Cc1cccc(-c2ccc(-c3cc4cnc(NCCCN5CCCC5=O)nc4n(CCCCN)c3=O)c(Cl)c2)n1 [compound 27, MR30]
ΔTm MR30 (27) (MARK4): 3.8 °C
ΔTm MR30 (27) (JNK2): 0.7 °C
ΔTm MR30 (27) (p38a): 3.6 °C
ΔTm MR30 (27) (CDK2): 1.4 °C
ΔTm MR30 (27) (MARK3): 4.7 °C
ΔTm MR30 (27) (MSK1b): -1.4 °C
ΔTm MR30 (27) (GAK): 4.3 °C
ΔTm MR30 (27) (DAPK3): 0.6 °C
ΔTm MR30 (27) (NEK7): -0.4 °C
ΔTm MR30 (27) (HIPK2): 0.0 °C

Cc1cccc(-c2ccc(-c3cc4cnc(Nc5cc(C(F)(F)F)ccc5C)nc4n(CCCCN)c3=O)c(Cl)c2)n1 [compound 28, 8-(4-Aminobutyl)-6-(2-chloro-4-(6-methylpyridin-2-yl)phenyl)-2-((2-methyl-5-(trifluoromethyl)phenyl)amino)pyrido[2,3-d]pyrimidin-7(8H)-one]
ΔTm 28 (MARK4): 2.2 °C
ΔTm 28 (JNK2): 0.0 °C
ΔTm 28 (p38a): 3.9 °C
ΔTm 28 (CDK2): -0.2 °C
ΔTm 28 (MARK3): 3.8 °C
ΔTm 28 (MSK1b): 1.4 °C
ΔTm 28 (GAK): 9.4 °C
ΔTm 28 (DAPK3): 1.0 °C
ΔTm 28 (NEK7): -0.7 °C
ΔTm 28 (HIPK2): -0.5 °C

Cc1cccc(-c2ccc(-c3cc4cnc(NCCCN5CCNCC5)nc4n(CCCCN)c3=O)c(Cl)c2)n1 [compound 29, 8-(4-Aminobutyl)-6-(2-chloro-4-(6-methylpyridin-2-yl)phenyl)-2-((3-(piperazin-1-yl)propyl)amino)pyrido[2,3-d]pyrimidin-7(8H)-one]
ΔTm 29 (MARK4): 4.8 °C
ΔTm 29 (JNK2): -0.1 °C
ΔTm 29 (p38a): 3.2 °C
ΔTm 29 (CDK2): 0.9 °C
ΔTm 29 (MARK3): 5.8 °C
ΔTm 29 (MSK1b): 0.2 °C
ΔTm 29 (GAK): 4.2 °C
ΔTm 29 (DAPK3): 0.0 °C
ΔTm 29 (NEK7): -0.2 °C
ΔTm 29 (HIPK2): 0.6 °C

Cc1cccc(-c2ccc(-c3cc4cnc(Nc5ccc(CCCO)cc5)nc4n(CCCCN)c3=O)c(Cl)c2)n1 [compound 30, 8-(4-Aminobutyl)-6-(2-chloro-4-(6-methylpyridin-2-yl)phenyl)-2-((4-(3-hydroxypropyl)phenyl)amino)pyrido[2,3-d]pyrimidin-7(8H)-one]
ΔTm 30 (MARK4): 9.5 °C
ΔTm 30 (JNK2): 4.3 °C
ΔTm 30 (p38a): 5.5 °C
ΔTm 30 (CDK2): 4.8 °C
ΔTm 30 (MARK3): 11.6 °C
ΔTm 30 (MSK1b): 3.6 °C
ΔTm 30 (GAK): 13.2 °C
ΔTm 30 (DAPK3): 2.9 °C
ΔTm 30 (NEK7): -0.9 °C
ΔTm 30 (HIPK2): 2.6 °C

Cc1cccc(-c2ccc(-c3cc4cnc(Nc5ccc(O)cc5)nc4n(CCCCN)c3=O)c(Cl)c2)n1 [compound 31, 8-(4-Aminobutyl)-6-(2-chloro-4-(6-methylpyridin-2-yl)phenyl)-2-((4-hydroxyphenyl)amino) pyrido[2,3-d]pyrimidin-7(8H)-one]
ΔTm 31 (MARK4): 10.4 °C
ΔTm 31 (JNK2): 4.2 °C
ΔTm 31 (p38a): 4.7 °C
ΔTm 31 (CDK2): 6.7 °C
ΔTm 31 (MARK3): 10.9 °C
ΔTm 31 (MSK1b): 4.3 °C
ΔTm 31 (GAK): 13.3 °C
ΔTm 31 (DAPK3): 2.0 °C
ΔTm 31 (NEK7): -1.6 °C
ΔTm 31 (HIPK2): 2.6 °C

Cc1cccc(-c2ccc(-c3cc4cnc(Nc5ccc(C)c(O)c5)nc4n(CCCCN)c3=O)c(Cl)c2)n1 [compound 32, 8-(4-Aminobutyl)-6-(2-chloro-4-(6-methylpyridin-2-yl)phenyl)-2-((3-hydroxy-4-methylphenyl)amino)pyrido[2,3-d]pyrimidin-7(8H)-one]
ΔTm 32 (MARK4): 9.9 °C
ΔTm 32 (JNK2): 3.3 °C
ΔTm 32 (p38a): 5.3 °C
ΔTm 32 (CDK2): 5.3 °C
ΔTm 32 (MARK3): 10.9 °C
ΔTm 32 (MSK1b): 4.6 °C
ΔTm 32 (GAK): 13.3 °C
ΔTm 32 (DAPK3): 2.6 °C
ΔTm 32 (NEK7): -0.6 °C
ΔTm 32 (HIPK2): 2.6 °C
